Measured values as given in article PMC3878488, “Biarsenical ligands bind to endogenous G-protein α-subunits and enable allosteric sensing of nucleotide binding” (BMC Biochemistry, 2013).

Tests used:
Experiment in all cases: F2FlAsH fluorescence anisotropy, nucleotide titration
Format in all cases: binding
[1] = test system: T1, αq + βγM (F2FlAsH-labeled); conditions: pH 7.8, 28°C, 2 mM MgCl2, 1 mM EDTA, 6 h; 15 nM F2FlAsH allosteric label
T1 construct: gene GNAQ; wild-type alpha (Kerafast, purified by GST-Ric8 association), reconstituted with beta1 / StrepII- and CCKACC-tagged gamma2 from Sf9
Excerpt: F2FlAsH fluorescence anisotropy, nucleotide titration on αq + βγM (F2FlAsH-labeled)

[2] = test system: T2, αsshort + βγM (F2FlAsH-labeled); conditions: pH 7.8, 28°C, 2 mM MgCl2, 1 mM EDTA, 6 h; 15 nM F2FlAsH allosteric label
T2 construct: gene GNAS; wild-type alpha (Kerafast, purified by GST-Ric8 association), reconstituted with beta1 / StrepII- and CCKACC-tagged gamma2 from Sf9
Excerpt: F2FlAsH fluorescence anisotropy, nucleotide titration on αsshort + βγM (F2FlAsH-labeled)

[3] = test system: T3, α13 + βγM (F2FlAsH-labeled); conditions: pH 7.8, 28°C, 2 mM MgCl2, 1 mM EDTA, 14 h; 15 nM F2FlAsH allosteric label
T3 construct: gene GNA13; wild-type alpha (Kerafast, purified by GST-Ric8 association), reconstituted with beta1 / StrepII- and CCKACC-tagged gamma2 from Sf9
Excerpt: F2FlAsH fluorescence anisotropy, nucleotide titration on α13 + βγM (F2FlAsH-labeled)

αi2βγM (F2FlAsH-labeled) = test system: T4, αi2βγM (F2FlAsH-labeled); conditions: pH 7.8, 28°C, 2 mM MgCl2, 1 mM EDTA, 2 h; 5 nM F2FlAsH allosteric label, ~40 nM nucleotide-depleted heterotrimer
T4 construct: gene GNAI2; wild-type alpha co-expressed in Sf9 with beta1 / StrepII- and CCKACC-tagged gamma2; nucleotide-depleted heterotrimer
Excerpt: F2FlAsH fluorescence anisotropy, nucleotide titration on αi2βγM (F2FlAsH-labeled)

[4] = test system: T5, αolf + βγM (F2FlAsH-labeled); conditions: pH 7.8, 28°C, 2 mM MgCl2, 1 mM EDTA, 6 h; 15 nM F2FlAsH allosteric label
T5 construct: gene GNAL; wild-type alpha (Kerafast, purified by GST-Ric8 association), reconstituted with beta1 / StrepII- and CCKACC-tagged gamma2 from Sf9
Excerpt: F2FlAsH fluorescence anisotropy, nucleotide titration on αolf + βγM (F2FlAsH-labeled)

[5] = test system: T6, αslong + βγM (F2FlAsH-labeled); conditions: pH 7.8, 28°C, 2 mM MgCl2, 1 mM EDTA, 6 h; 15 nM F2FlAsH allosteric label
T6 construct: gene GNAS; wild-type alpha (Kerafast, purified by GST-Ric8 association), reconstituted with beta1 / StrepII- and CCKACC-tagged gamma2 from Sf9
Excerpt: F2FlAsH fluorescence anisotropy, nucleotide titration on αslong + βγM (F2FlAsH-labeled)

αi3βγM (F2FlAsH-labeled) = test system: T7, αi3βγM (F2FlAsH-labeled); conditions: pH 7.8, 28°C, 2 mM MgCl2, 1 mM EDTA, 2 h; 5 nM F2FlAsH allosteric label, ~40 nM nucleotide-depleted heterotrimer
T7 construct: gene GNAI3; wild-type alpha co-expressed in Sf9 with beta1 / StrepII- and CCKACC-tagged gamma2; nucleotide-depleted heterotrimer
Excerpt: F2FlAsH fluorescence anisotropy, nucleotide titration on αi3βγM (F2FlAsH-labeled)

αi1βγM (F2FlAsH-labeled) = test system: T8, αi1βγM (F2FlAsH-labeled); conditions: pH 7.8, 28°C, 2 mM MgCl2, 1 mM EDTA, 2 h; 5 nM F2FlAsH allosteric label, ~40 nM nucleotide-depleted heterotrimer
T8 construct: gene GNAI1; wild-type alpha co-expressed in Sf9 with beta1 / StrepII- and CCKACC-tagged gamma2; nucleotide-depleted heterotrimer
Excerpt: F2FlAsH fluorescence anisotropy, nucleotide titration on αi1βγM (F2FlAsH-labeled)

For `Nc1nc2c(ncn2[C@@H]2O[C@H](COP(=O)(O)OP(=O)(O)O)[C@@H](O)[C@H]2O)c(=O)[nH]1` [GDP], the GDP [1] was 5.87 ± 0.06 -log M, the GDP [2] was 4.85 ± 0.05 -log M and the GDP [3] was 4.98 ± 0.23 -log M. The GDP (αi2βγM (F2FlAsH-labeled)) was 8.17 ± 0.13 -log M, the GDP [4] was 5.00 ± 0.03 -log M and the GDP [5] was 4.72 ± 0.18 -log M. For the same molecule, the GDP (αi3βγM (F2FlAsH-labeled)) was 8.08 ± 0.10 -log M and the GDP (αi1βγM (F2FlAsH-labeled)) was 8.19 ± 0.16 -log M.
For `Nc1nc2c(ncn2[C@@H]2O[C@H](COP(=O)(O)O)[C@@H](O)[C@H]2O)c(=O)[nH]1` [GMP], the GMP [1] was < 3 -log M, the GMP [2] was < 3 -log M and the GMP (αi2βγM (F2FlAsH-labeled)) was 4.45 ± 0.07 -log M. For the same molecule, the GMP [4] was < 3 -log M, the GMP (αi3βγM (F2FlAsH-labeled)) was 5.29 ± 0.13 -log M and the GMP (αi1βγM (F2FlAsH-labeled)) was 5.89 ± 0.12 -log M.
`Nc1nc2c(ncn2[C@@H]2O[C@H](COP(=O)(O)OP(=O)(O)OP(O)(O)=S)[C@@H](O)[C@H]2O)c(=O)[nH]1` [GTPγS] was tested, and the GTPγS [1] was 6.27 ± 0.05 -log M, the GTPγS [2] was 7.06 ± 0.04 -log M and the GTPγS [3] was 5.65 ± 0.13 -log M. The GTPγS (αi2βγM (F2FlAsH-labeled)) was 8.02 ± 0.09 -log M, the GTPγS [4] was 6.43 ± 0.04 -log M and the GTPγS [5] was 7.47 ± 0.09 -log M. For the same molecule, the GTPγS (αi3βγM (F2FlAsH-labeled)) was 7.87 ± 0.06 -log M.
For `Nc1nc2c(ncn2[C@@H]2O[C@H](COP(=O)(O)OP(=O)(O)NP(=O)(O)O)[C@@H](O)[C@H]2O)c(=O)[nH]1` [GppNHp], the GppNHp [1] was 5.96 ± 0.07 -log M, the GppNHp [2] was 6.42 ± 0.04 -log M and the GppNHp [3] was 5.36 ± 0.14 -log M. The GppNHp (αi2βγM (F2FlAsH-labeled)) was 7.84 ± 0.14 -log M, the GppNHp [4] was 5.84 ± 0.05 -log M and the GppNHp [5] was 6.56 ± 0.07 -log M. The GppNHp (αi3βγM (F2FlAsH-labeled)) was 7.93 ± 0.07 -log M and the GppNHp (αi1βγM (F2FlAsH-labeled)) was 8.08 ± 0.04 -log M.
